# Test results reported in the supplement of paper PMC5373622, “Screening for AMPA receptor auxiliary subunit specific modulators” (PLoS ONE, 2017).
# ± gives the standard deviation of the averaged measurements.
# What was measured:
# GRIA2 [1] = assay: glutamate-evoked VSD slope, % of maximal glutamate response; higher = potentiation
# GRIA2 [2] = assay: compound-evoked VSD slope (no glutamate), % of maximal glutamate slope; higher = agonist activity
# Experimental: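 VSD concentration-response of known AMPAR ligands (fluorowillardiine, CX-546, cyclothiazide) on A2R-stg and A2R-C3 HEK293 cells, with compound added before EC50 glutamate. Per-well GluSlope and compound-window slope are given as % of the maximal-glutamate slope after vehicle subtraction.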
SMILES,"glutamate-evoked VSD slope (GRIA2 [1]; 3.91 µM, clone: A2R-C3)","glutamate-evoked VSD slope (GRIA2 [1]; 7.81 µM, clone: A2R-C3)","glutamate-evoked VSD slope (GRIA2 [1]; 7.81 µM, clone: A2R-stg)","glutamate-evoked VSD slope (GRIA2 [1]; 15.6 µM, clone: A2R-C3)","glutamate-evoked VSD slope (GRIA2 [1]; 15.6 µM, clone: A2R-stg)","glutamate-evoked VSD slope (GRIA2 [1]; 31.2 µM, clone: A2R-stg)","glutamate-evoked VSD slope (GRIA2 [1]; 62.5 µM, clone: A2R-C3)","glutamate-evoked VSD slope (GRIA2 [1]; 62.5 µM, clone: A2R-stg)","glutamate-evoked VSD slope (GRIA2 [1]; 0.000125 M, clone: A2R-C3)","glutamate-evoked VSD slope (GRIA2 [1]; 0.00025 M, clone: A2R-stg)","glutamate-evoked VSD slope (GRIA2 [1]; 0.0005 M, clone: A2R-C3)","glutamate-evoked VSD slope (GRIA2 [1]; 0.001 M, clone: A2R-C3)","glutamate-evoked VSD slope (GRIA2 [1]; 0.001 M, clone: A2R-stg)","compound-evoked VSD slope (GRIA2 [2]; 3.91 µM, clone: A2R-C3)","compound-evoked VSD slope (GRIA2 [2]; 3.91 µM, clone: A2R-stg)","compound-evoked VSD slope (GRIA2 [2]; 7.81 µM, clone: A2R-C3)","compound-evoked VSD slope (GRIA2 [2]; 7.81 µM, clone: A2R-stg)","compound-evoked VSD slope (GRIA2 [2]; 15.6 µM, clone: A2R-C3)","compound-evoked VSD slope (GRIA2 [2]; 15.6 µM, clone: A2R-stg)","compound-evoked VSD slope (GRIA2 [2]; 31.2 µM, clone: A2R-C3)","compound-evoked VSD slope (GRIA2 [2]; 31.2 µM, clone: A2R-stg)","compound-evoked VSD slope (GRIA2 [2]; 62.5 µM, clone: A2R-C3)","compound-evoked VSD slope (GRIA2 [2]; 62.5 µM, clone: A2R-stg)","compound-evoked VSD slope (GRIA2 [2]; 0.000125 M, clone: A2R-C3)","compound-evoked VSD slope (GRIA2 [2]; 0.000125 M, clone: A2R-stg)","compound-evoked VSD slope (GRIA2 [2]; 0.0005 M, clone: A2R-C3)","compound-evoked VSD slope (GRIA2 [2]; 0.001 M, clone: A2R-C3)","glutamate-evoked VSD slope (GRIA2 [1]; 1.95 µM, clone: A2R-C3)","glutamate-evoked VSD slope (GRIA2 [1]; 1.95 µM, clone: A2R-stg)","glutamate-evoked VSD slope (GRIA2 [1]; 3.91 µM, clone: A2R-stg)","glutamate-evoked VSD slope (GRIA2 [1]; 31.2 µM, clone: A2R-C3)","glutamate-evoked VSD slope (GRIA2 [1]; 0.000125 M, clone: A2R-stg)","glutamate-evoked VSD slope (GRIA2 [1]; 0.0005 M, clone: A2R-stg)","compound-evoked VSD slope (GRIA2 [2]; 1.95 µM, clone: A2R-C3)","compound-evoked VSD slope (GRIA2 [2]; 1.95 µM, clone: A2R-stg)","compound-evoked VSD slope (GRIA2 [2]; 0.00025 M, clone: A2R-C3)","compound-evoked VSD slope (GRIA2 [2]; 0.00025 M, clone: A2R-stg)","compound-evoked VSD slope (GRIA2 [2]; 0.0005 M, clone: A2R-stg)"
O=C(c1ccc2c(c1)OCCO2)N1CCCCC1 [CX-546],12.5 ± 1.8%,10.8 ± 3.4%,20.7 ± 4.5%,15.8 ± 6.4%,24.6 ± 8%,24.9 ± 3.2%,23 ± 2%,41.4 ± 4.9%,25.6 ± 3.4%,53.6 ± 3%,40.3 ± 4.6%,47.6 ± 10%,54.1 ± 3.9%,16.4 ± 1.7%,26.8 ± 0.99%,16.9 ± 0.81%,27.4 ± 1%,16.1 ± 4.3%,26.7 ± 1.3%,16.2 ± 3.6%,26.7 ± 1.4%,18.9 ± 2.4%,28 ± 0.66%,18.9 ± 0.99%,29.5 ± 0.74%,23.4 ± 0.91%,29.1 ± 1.2%,,,,,,,,,,,
NS(=O)(=O)c1cc2c(cc1Cl)NC(C1CC3C=CC1C3)NS2(=O)=O (configuration not stated) [cyclothiazide],26.7 ± 2.5%,42.8 ± 3.3%,52.6 ± 3.2%,56.6 ± 5.3%,60 ± 5.6%,62.7 ± 9.1%,70.9 ± 3.4%,68.8 ± 4%,63.8 ± 21%,71.3 ± 3.3%,69 ± 4.6%,,,18.4 ± 1.1%,26.6 ± 1.6%,15.7 ± 1.1%,27.1 ± 1.4%,18 ± 1.3%,27.3 ± 0.81%,18.6 ± 0.53%,27.7 ± 1.1%,18.6 ± 1.4%,28.8 ± 0.79%,19.2 ± 1.4%,29 ± 0.62%,20.7 ± 1.4%,,23 ± 3.3%,30.6 ± 5.6%,37.5 ± 5.1%,65.2 ± 3.7%,68.4 ± 3.5%,65.9 ± 8.1%,16.2 ± 1.1%,27.7 ± 0.73%,20.3 ± 1.3%,28.2 ± 1.1%,27.5 ± 1.8%
